From US5053070A, “Pyrimidine derivatives, preparation processes thereof, herbicide containing the same, and herbicidal compositions containing the same along with other active ingredient” (Mitsui Toatsu Chemicals, Incorporated, priority 1988, dated 1991)
In brackets after ≈: the same amount, converted by molar mass.

Legend:
peanut = assay: Upland foliar application test (Test 3), crop injury; type: in vivo; settings: 30 g ai/a, foliar spray at 2-3 leaves, 30th day
Procedure, shortened: (§1)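 Greenhouse pots, upland soil; seedlings at 2-3 leaves. Foliar ULV spray of water-diluted emulsion, 5 l/are. Injury/damage rated 30 d after spraying.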

rice [1] = assay: Treatment of soil under submerged condition, pre-emergence (Test 4), injury; type: in vivo; settings: 30 g ai/a granule, 30 days later
Procedure, shortened: (§2)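 Scores reflect weed emergence and rice injury observed 30 days after a pre-emergence granule treatment. The granule, holding a predetermined amount of test composition, went onto submerged soil pots one day after sowing weeds and transplanting 2–3-leaf rice seedlings.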

barnyardgrass [2] = assay: Treatment of soil under submerged condition, post-emergence (Test 5); type: in vivo; settings: 30 g ai/a granule, post-emergence (barnyardgrass two-leaf stage), 30 days later
Procedure, shortened: (§3)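 Pots of submerged soil were sown with weed seeds or tubers, and 2-3-leaf rice seedling pairs were transplanted. At barnyardgrass two-leaf stage a granule formulation was applied. Weed emergence and rice injury were rated 30 days later as damage degrees.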

Sagittaria pygmaea [3] = assay: as above; type: in vivo; settings: 30 g ai/a granule, 30 days later
Procedure, shortened: as §3

bulrush [4] = assay: as above; type: in vivo; settings: 30 g ai/a granule, 30 days later
Procedure, shortened: as §3

narrowleaf waterplantain = assay: Petri dish test (Test 6); type: in vivo; settings: 336 h; seeds on filter paper, 25° C., 14 days; read-out: I80 (ppm)
Procedure, shortened: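 Narrowleaf waterplantain seeds placed on filter paper pre-treated with compound in acetone (solvent air-dried) in 9 cm Petri dishes with 10 ml water, grown at 25° C in light. Growth was scored after fourteen days as degree of damage against an untreated group.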

barnyardgrass [5] = assay: Treatment of soil under submerged condition, pre-emergence (Test 4); type: in vivo; settings: 30 g ai/a granule, 30 days later
Procedure, shortened: as §2

Sagittaria pygmaea [6] = assay: as above; type: in vivo; settings: 30 g ai/a granule, 30 days later
Procedure, shortened: as §2

bulrush [7] = assay: as above; type: in vivo; settings: 30 g ai/a granule, 30 days later
Procedure, shortened: as §2

rice [8] = assay: Treatment of soil under submerged condition, post-emergence (Test 5), injury; type: in vivo; settings: 30 g ai/a granule, 30 days later
Procedure, shortened: as §3

johnsongrass = assay: Upland foliar application test (Test 3); type: in vivo; settings: 30 g ai/a, foliar spray at 2-3 leaves, 30th day
Procedure, shortened: as §1

barnyardgrass [9] = assay: Upland foliar application test (Test 3); type: in vivo; settings: 30 g ai/a, foliar spray at 2-3 leaves, 30th day
Procedure, shortened: as §1

foxtail meadow = assay: Upland foliar application test (Test 3); type: in vivo; settings: 30 g ai/a, foliar spray at 2-3 leaves, 30th day
Procedure, shortened: as §1

redroot pigweed = assay: Upland foliar application test (Test 3); type: in vivo; settings: 30 g ai/a, foliar spray at 2-3 leaves, 30th day
Procedure, shortened: as §1

large crabgrass = assay: Upland foliar application test (Test 3); type: in vivo; settings: 30 g ai/a, foliar spray at 2-3 leaves, 30th day
Procedure, shortened: as §1

common lambsquarters = assay: Upland foliar application test (Test 3); type: in vivo; settings: 30 g ai/a, foliar spray at 2-3 leaves, 30th day
Procedure, shortened: as §1

green foxtail = assay: Upland foliar application test (Test 3); type: in vivo; settings: 30 g ai/a, foliar spray at 2-3 leaves, 30th day
Procedure, shortened: as §1

[10] = tested on: ALS (acetolactate syntase); assay: ALS enzyme assay (Test 1); type: biochemical, barnyardgrass; settings: 1,000 ppm (0.5 mg/0.5 ml)
Procedure, shortened: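 Partially purified ALS from dark-grown pea and barnyardgrass seedlings incubated 1 h at 30° C with pyruvate, TPP, MgCl2 and FAD. Compounds tested at 1,000 ppm (0.5 mg/0.5 ml). Acetoin formed detected colorimetrically at 525 nm via creatine/α-naphthol, relative to blank and acid-stopped controls.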

Structure (SMILES)	Injury Peanut (peanut)	Injury Rice (rice [1])	Herbicidal effects Barnyardgrass (barnyardgrass [2])	Herbicidal effects Sagittaria Pygmaea (Sagittaria pygmaea [3])	Herbicidal effects Bulrush (bulrush [4])	IC80 (narrowleaf waterplantain)	Herbicidal effects Barnyardgrass (barnyardgrass [5])	Herbicidal effects Sagittaria Pygmaea (Sagittaria pygmaea [6])	Herbicidal effects Bulrush (bulrush [7])	Injury Rice (rice [8])	Herbicidal effects Johnsongrass (johnsongrass)	Herbicidal effects Barnyardgrass (barnyardgrass [9])	Herbicidal effects Foxtail meadow (foxtail meadow)	Herbicidal effects Redroot pigweed (redroot pigweed)	Herbicidal effects Large crabgrass (large crabgrass)	Herbicidal effects Common lambsquarters (common lambsquarters)	Herbicidal effects Green foxtail (green foxtail)	Inhibitory activity (%) Barnyardgrass [10]
COc1cc(OC)nc(Oc2ccccc2C=NOCC=Cc2ccccc2Br)n1 [compound 40]	0 (91-100 (No damages))	0 (91-100 (No damages))	5 (0-5 (Death))	4 (6-10 (Severe damages))	4 (6-10 (Severe damages))	2 µg/mL (≈ 4.25 µM)	5 (0-5 (Death))	5 (0-5 (Death))	3 (11-40 (Medium damages))	1 (71-90 (Slight damages))	5 (0-5 (Death))	5 (0-5 (Death))	5 (0-5 (Death))	5 (0-5 (Death))	4 (6-10 (Severe damages))	4 (6-10 (Severe damages))	4 (6-10 (Severe damages))	94%
COc1cc(OC)nc(Oc2ccccc2C=NOCC=Cc2cccc(Cl)c2Cl)n1 [compound 41]	0 (91-100 (No damages))	0 (91-100 (No damages))	5 (0-5 (Death))	4 (6-10 (Severe damages))	4 (6-10 (Severe damages))	2 µg/mL (≈ 4.34 µM)	5 (0-5 (Death))	5 (0-5 (Death))	4 (6-10 (Severe damages))	0 (91-100 (No damages))	5 (0-5 (Death))	5 (0-5 (Death))	4 (6-10 (Severe damages))	5 (0-5 (Death))	5 (0-5 (Death))	4 (6-10 (Severe damages))	4 (6-10 (Severe damages))	89%
COc1cc(OC)nc(Oc2ccccc2C=NOCC#Cc2ccccc2)n1 [compound 42]	0 (91-100 (No damages))	0 (91-100 (No damages))	5 (0-5 (Death))	5 (0-5 (Death))	4 (6-10 (Severe damages))	17 µg/mL (≈ 43.7 µM)	5 (0-5 (Death))	5 (0-5 (Death))	4 (6-10 (Severe damages))	0 (91-100 (No damages))	5 (0-5 (Death))	5 (0-5 (Death))	5 (0-5 (Death))	5 (0-5 (Death))	3 (11-40 (Medium damages))	4 (6-10 (Severe damages))	5 (0-5 (Death))	93%
